Here are results for six molecules from patent US12540143B2, “Methods and compositions for targeted protein degradation” (Ranok Therapeutics (Hangzhou) Co. Ltd., priority 2019, dated 2026).

The experiment has as its system MV4-11 cells. Briefly: MV4-11 Cytotoxicity Assay. The class given is cell-based, human. The conditions noted are these: Homo sapiens, MV4-11; 72 hr, CCK-8; read-out: MV4-11 cytotoxicity.
For `CCN(Cc1ccc(OCCCNC(=O)C[C@@H]2N=C(c3ccc(Cl)cc3)c3c(sc(C)c3C)-n3c(C)nnc32)cc1)Cc1ccc(-n2c(O)nnc2-c2cc(C(C)C)c(O)cc2O)cc1` [Compound 100, (S)-2-(4-(4-chlorophenyl)-2,3,9-trimethyl-6H-thieno[3,2-f][1,2,4]triazolo[4,3-a][1,4]diazepin-6-yl)-N-(3-(4-(((4-(3-(2,4-dihydroxy-5-isopropylphenyl)-5-hydroxy-4H-1,2,4-triazol-4-yl)benzyl)(ethyl)amino)methyl)phenoxy)propyl)acetamide, formic acid], the IC50 is less than 100 nM.

On to `Cc1sc2c(c1C)C(c1ccc(Cl)cc1)=N[C@@H](CC(=O)N(C)CCOc1ccc(CN(C)Cc3ccc(-n4c(C(=O)NCC(F)(F)F)nnc4-c4cc(C(C)C)c(O)cc4O)cc3)cc1)c1nnc(C)n1-2` [Compound 101, (S)-4-(4-(((4-(2-(2-(4-(4-chlorophenyl)-2,3,9-trimethyl-6H-thieno[3,2-f][1,2,4]triazolo[4,3-a][1,4]diazepin-6-yl)-N-methylacetamido)ethoxy)benzyl)(methyl)amino)methyl)phenyl)-5-(2,4-dihydroxy-5-isopropylphenyl)-N-(2,2,2-trifluoroethyl)-4H-1,2,4-triazole-3-carboxamide, formic acid], for which the IC50 is less than 100 nM.

As for `CCN(Cc1ccc(OCCCNC(=O)C[C@@H]2N=C(c3ccc(Cl)cc3)c3c(sc(C)c3C)-n3c(C)nnc32)cc1)Cc1ccc(-n2c(C(=O)NCC(F)(F)F)nnc2-c2cc(C(C)C)c(O)cc2O)cc1` [Compound 102, (S)-4-(4-(((4-(3-(2-(4-(4-chlorophenyl)-2,3,9-trimethyl-6H-thieno[3,2-f][1,2,4]triazolo[4,3-a][1,4]diazepin-6-yl)acetamido)propoxy)benzyl)(ethyl)amino)methyl)phenyl)-5-(2,4-dihydroxy-5-isopropylphenyl)-N-(2,2,2-trifluoroethyl)-4H-1,2,4-triazole-3-carboxamide, trifluoroacetic acid], the IC50 was less than 100 nM.

`Cc1sc2c(c1C)C(c1ccc(Cl)cc1)=N[C@@H](CC(=O)N1CCC(CN3CCN(Cc4ccc(-n5c(O)nnc5-c5cc(C(C)C)c(O)cc5O)cc4)CC3)CC1)c1nnc(C)n1-2` [Compound 103, (S)-2-(4-(4-chlorophenyl)-2,3,9-trimethyl-6H-thieno[3,2-f][1,2,4]triazolo[4,3-a][1,4]diazepin-6-yl)-1-(4-((4-(4-(3-(2,4-dihydroxy-5-isopropylphenyl)-5-hydroxy-4H-1,2,4-triazol-4-yl)benzyl)piperazin-1-yl)methyl)piperidin-1-yl)ethan-1-one acetate]: the IC50 was less than 100 nM.

`CCc1cc(-c2nnc(C(=O)NCCN(CC)CC)n2-c2ccc(CN3CCN(CC4CCN(C(=O)C[C@@H]5N=C(c6ccc(Cl)cc6)c6c(sc(C)c6C)-n6c(C)nnc65)CC4)CC3)cc2)c(O)cc1O` [Compound 104, (S)-4-(4-((4-((1-(2-(4-(4-chlorophenyl)-2,3,9-trimethyl-6H-thieno[3,2-f][1,2,4]triazolo[4,3-a][1,4]diazepin-6-yl)acetyl)piperidin-4-yl)methyl)piperazin-1-yl)methyl)phenyl)-N-(2-(diethylamino)ethyl)-5-(5-ethyl-2,4-dihydroxyphenyl)-4H-1,2,4-triazole-3-carboxamide, trifluoroacetic acid]: the IC50 was less than 100 nM.

Turning to `CCc1cc(-c2nnc(C(=O)NC(C)C)n2-c2ccc(CN3CCN(CC4CCN(C(=O)C[C@@H]5N=C(c6ccc(Cl)cc6)c6c(sc(C)c6C)-n6c(C)nnc65)CC4)CC3)cc2)c(O)cc1O` [Compound 105, (S)-4-(4-((4-((1-(2-(4-(4-chlorophenyl)-2,3,9-trimethyl-6H-thieno[3,2-f][1,2,4]triazolo[4,3-a][1,4]diazepin-6-yl)acetyl)piperidin-4-yl)methyl)piperazin-1-yl)methyl)phenyl)-5-(5-ethyl-2,4-dihydroxyphenyl)-N-isopropyl-4H-1,2,4-triazole-3-carboxamide, trifluoroacetic acid], the IC50 was less than 100 nM.
